{
  "source": "BindingDB's records for doi:10.1016/j.bmcl.2013.02.064",
  "about": "(Toronto General Research Institute, 2013)",
  "test": "Inhibition of FCgamma receptor in human PBMC assessed as inhibition of opsonized RBC phagocytosis incubated for 1 hr prior to RBC addition measured after 2 hrs by monocyte monolayer assay",
  "data": [
    {"smiles": "Cc1cc(SSc2cc(C)nn2-c2ccccc2)n(-c2ccccc2)n1", "values": [
      {"measurement": "IC50", "value": 0.1, "unit": "µM"}
    ]}
  ]
}
